Test results from ChEMBL document CHEMBL1154594, “Delta agonist hydroxy bioisosteres: the discovery of 3-((1-benzylpiperidin-4-yl){4-[(diethylamino)carbonyl]phenyl}amino)benzamide with improved delta agonist activity and in vitro metabolic stability” (Bioorg Med Chem Lett, 2009).

Experiments:
[1] = Intrinsic clearance in human liver microsomes; format: ADME, Microsome
[2] = Intrinsic clearance in rat liver microsomes; format: ADME, Microsome

Row | SMILES | microsomal CLint [1] | microsomal CLint [2]
1 | CCN(CC)C(=O)c1ccc(N(c2cccc(O)c2)C2CCN(Cc3ccccc3)CC2)cc1 | 286 µL/min/mg | 384 µL/min/mg
2 | CCN(CC)C(=O)c1ccc(N(c2cccc(NC(C)=O)c2)C2CCN(Cc3ccccc3)CC2)cc1 | 139 µL/min/mg | 
3 | CCN(CC)C(=O)c1ccc(N(c2cccc(NC(=O)OC)c2)C2CCN(Cc3ccccc3)CC2)cc1 | 200 µL/min/mg | 
4 | CCN(CC)C(=O)c1ccc(N(c2cccc(C(N)=O)c2)C2CCN(Cc3ccccc3)CC2)cc1 | 71 µL/min/mg | 62 µL/min/mg
5 | CCN(CC)C(=O)c1ccc(N(c2cccc(NS(C)(=O)=O)c2)C2CCN(Cc3ccccc3)CC2)cc1 | 96 µL/min/mg | 
